Consider 33 compounds from patent US7671069B2, “Tricyclic, heteroaromatic compounds modulating CXCR4 and/ or CXCR7” (ChemoCentryx, Inc., priority 2006, dated 2010).

For this assay, the target named is T1, CXCR4 (Homo sapiens, UniProt P61073).
T1 construct: endogenous in cells; host or cells: CEM-Nkr, CCRF-CEM (ATCC #CCL-119), Jurkat (ATCC #TIB-152), Molt-4 (ATCC# CRL-1582); IL-2 stimulated lymphocytes from human blood
T1 sequence (P61073 whole entry): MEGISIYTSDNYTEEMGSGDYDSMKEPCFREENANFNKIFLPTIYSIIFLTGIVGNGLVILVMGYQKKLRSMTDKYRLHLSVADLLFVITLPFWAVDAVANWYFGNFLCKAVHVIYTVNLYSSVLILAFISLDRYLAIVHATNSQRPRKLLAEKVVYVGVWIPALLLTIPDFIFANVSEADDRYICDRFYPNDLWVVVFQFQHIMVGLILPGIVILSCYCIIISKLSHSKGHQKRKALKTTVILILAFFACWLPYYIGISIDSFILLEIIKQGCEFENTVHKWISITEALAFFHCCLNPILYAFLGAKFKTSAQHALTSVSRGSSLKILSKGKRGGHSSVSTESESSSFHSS
Briefly: Inhibition of SDF-1 ligand binding or chemotaxis assay for CXCR4. The following applies: first (or only) activity listed in CXCR4/CXCR7; chemotaxis assay or binding assays. Here is the method:
CEM-Nkr, CCRF-CEM (ATCC #CCL-119), Jurkat (ATCC #TIB-152), Molt-4 (ATCC# CRL-1 582), cell lines, all endogenously expressing CXCR4, were used in compound screening and subsequent assays. These cell lines were cultured as a suspension in RPMI-1640 medium supplemented with 2 mM L-glutamine, 1.5 g/L sodium bicarbonate, 4.5 g/L glucose, 10 mM HEPES, 1 mM sodium pyruvate, and 10% FBS. Cells were grown under 5% CO2/95% air, 100% humidity at 37° C. and subcultured twice weekly at 1:6 (cells were cultured at a density range of 1×10^5 to 2×10^6 cells/mL) and harvested at 1×10^6 cells/mL.
Il-2 stimulated lymphocytes were isolated from fresh human blood using density separation and centrifigation. Briefly, whole blood is incubated with equal parts 3% dextran and allowed to separate for 45 minutes. After separation, the top layer is then layered on top of 15 mls of Ficoll (15 mls of Ficoll for every 30 mls of blood suspension) and centrifuged for 30 minutes at 400×g with no brake. The pellet at the bottom of the tube is then isolated and resuspended into PharmLyse RBC Lysis Buffer (BD Biosciences, San Jose, Calif.) after which the sample is again centrifuged for 10 minutes at 400×g with brake. The remaining cell pellet is resuspended as appropriate and stimulated with PHA for 2 days, followed by culturing in the presence of human IL-2 cytokine.
Cells were centrifuged and resuspended in assay buffer (20 mM HEPES pH 7.1, 140 mM NaCl, 1 mM CaCl2, 5 mM MgCl2, and with 0.2% bovine serum albumin) to a concentration of 4×10^6 cells/mL for cell lines. Binding assays were set up as follows. 0.15 mL of cells (6×10^5 cells/well) was added to the assay plates containing the compounds, giving a final concentration of ˜2-10 μM each compound for screening (or part of a dose response for compound IC50 determinations). Then 0.1 mL of ^125I labeled SDF-1α (obtained from Perkin Elmer Life Sciences, Boston, Mass.) diluted in assay buffer to a final concentration of ˜[…], yielding ˜30,000 cpm per well, was added, the plates sealed and incubated for approximately 3 hours at 4° C. on a shaker platform. Reactions were aspirated onto GF/B glass filters pre-soaked in 0.3% polyethyleneimine (PEI) solution, on a vacuum cell harvester (Packard Instruments; Meriden, Conn.). Scintillation fluid (40 μl; Microscint 20, Packard Instruments) was added to each well, the plates were sealed and radioactivity measured in a Topcount scintillation counter (Packard Instruments). Control wells containing either diluent only (for total counts) or excess SDF1a (1 μg/mL, for non-specific binding) were used to calculate the percent of total inhibition for compound. The computer program Prism from Graph Pad, Inc. (San Diego, Calif.) was used to calculate IC50 values. IC50 values are those concentrations required to reduce the binding of radiolabeled SDF-1α to the receptor by 50%. (For further descriptions of ligand binding and other functional assays, see Dairaghi, et al., J. Biol. Chem. 274:21569-21574 (1999), Penfold, et al., Proc. Natl. Acad. Sci. USA. 96:9839-9844 (1999), and Dairaghi, et al,. J. Biol. Chem. 272:28206-28209 (1997)).
Chemotaxis assays were performed using 5 μm pore polycarbonate, polyvinylpyrrolidone-coated filters in 96-well chemotaxis chambers (Neuroprobe; Gaithersburg, Md.) using chemotaxis buffer (Hank's balanced salt solution (HBSS) and 1% FBS). CXCR4 ligand (i.e., SDF1a, R&D Systems; Minneapolis, Minn.) are use to evaluate compound mediated inhibition of CXCR4 mediated migration. Other chemokines (i.e., TECK; R&D Systems; Minneapolis, Minn.) are used as specificity controls. The lower chamber was loaded with 29 μl of chemokine (i.e., 0.1 nM SDF1a); the top chamber contained 50,000 Jurkat cells or IL-2 lymphocytes in 20 μl. […]
On to `Cc1ccc2c(c1)-c1nn(CC(=O)NCCN(C)C3CCCCC3)cc1CO2` [Compound 3], for which the IC50 – broadly, the concentration at which inhibition is half-maximal – lay within 1 to 10 µM.

`CN(CCNC(=O)Cn1ncc2c1-c1cc(Cl)ccc1OC2)C1CCCCC1` [Compound 4] yielded a half-inhibitory concentration (IC50) of more than 10 µM.

Turning to `Cc1ccc2c(c1)-c1c(cnn1CC(=O)N1CCN(C3CCCCCC3)CC1)CO2` [Compound 5], the IC50 fell in the range of 1 to 10 µM.

Take `CN(CCNC(=O)Cn1ncc2c1-c1ccccc1CC2)C1CCCCC1` [Compound 6]: the IC50 was in the range of 1 to 10 µM.

On to `COc1ccc2c(c1)-c1c(cnn1CC(=O)NCCN(C1CCCCC1)C1CCCCC1)CO2` [Compound 7], for which the IC50 lay in the range of 1 to 10 µM.

`Cc1ccc2c(c1)c1c(cnn1CC(=O)NCCN(C)C1CCCCC1)c(=O)n2C` [Compound 8] returned an IC50 of 1 to 10 µM.

`COc1ccc2nc(OC)c3cnn(CC(=O)NCCN(C)C4CCCCC4)c3c2c1` [Compound 9]: the IC50 was less than 1 µM.

`CN(CCNC(=O)Cn1ncc2[nH]c(=O)c3ccccc3c21)C1CCCCC1` [Compound 10] returned a 50% inhibitory concentration (IC50) of more than 10 µM.

Regarding `COc1nc2cnn(CC(=O)NCCN(C)C3CCCCC3)c2c2ccccc12` [Compound 11], the IC50 is 1 to 10 µM.

In the case of `COc1ccc2c(c1)c1c(cnn1CC(=O)NCCN(C)C1CCCCC1)c(=O)n2CC(=O)OC(C)(C)C` [Compound 12], the IC50 was 1 to 10 µM.

Compound `CN(CCCNC(=O)Cn1ncc2cc3ccccc3nc21)C1CCCCC1` [Compound 14] gave an IC50 of 1 to 10 µM.

Turning to `COc1ccc2c(c1)c1c(cnn1C(C)C(=O)NCCN(C)C1CCCCC1)c(=O)n2C` (stereo not drawn) [Compound 15], the half-inhibitory concentration (IC50) is 1 to 10 µM.

For the compound `COc1ccc2c(c1)c1c(cnn1CC(=O)NCCN1CCC3CCCCC3C1)c(=O)n2C` (stereo not drawn) [Compound 16], the concentration for half-maximal inhibition (IC50) was less than 1 µM.

In turn, `COc1ccc2c(c1)c1c(cnn1CC(=O)NCC1CCCN(C3CCCCC3)C1)c(=O)n2C` (stereo not drawn) [Compound 17] returned an IC50 of more than 10 µM.

The compound `COc1ccc2c(c1)c1c(cnn1CC(=O)NCCN(C)C1CCOCC1)c(=O)n2C` [Compound 18] returned an IC50 of more than 10 µM.

Compound `CN(CCNC(=O)Cn1ncc2c1-c1ccc(C#N)cc1OC2)C1CCCCC1` [Compound 19] had a concentration for half-maximal inhibition (IC50) of less than 1 µM.

The compound `COc1ccc2c(c1)-c1c(cnn1CC(=O)NCCN(C)C1CCCC1)CO2` [Compound 20] came in with a half-maximal inhibitory concentration (IC50) of 1 to 10 µM.

On to `CN(CCNC(=O)Cn1ncc2c(=O)oc3ccccc3c21)C1CCCCC1` [Compound 21], for which the IC50 was more than 10 µM.

`CN(CCNC(=O)Cn1ncc2c(=O)oc3ccc(Cl)cc3c21)C1CCCCC1` [Compound 22]: the IC50 lay in the range of 1 to 10 µM.

Regarding `Cc1cc2c(cc1Cl)-c1c(cnn1CC(=O)NCCN(C)C1CCCCC1)CO2` [Compound 23], the IC50 was more than 10 µM.

`COc1ccc2c(c1)-c1c(cnn1CC(=O)NCCN(C)C1CCCCCCC1)CO2` [Compound 25] had an IC50 of 1 to 10 µM.

For `COc1ccc2c(c1)-c1c(cnn1CC(=O)NCCN(C)C1CCCCCC1)CO2` [Compound 26], the IC50 is more than 10 µM.

In turn, `COc1ccc2c(c1)-c1c(cnn1C(=O)NCCN1CCC[C@@H]3CCCC[C@@H]31)CO2` [Compound 27] yielded an IC50 of 1 to 10 µM.

The compound `COc1ccc2c(c1)c1c(cnn1C(=O)NCCN1CCC[C@@H]3CCCC[C@H]31)c(=O)n2C` [Compound 28] returned a concentration for half-maximal inhibition (IC50) of less than 1 µM.

In turn, `CCN(CCNC(=O)Cn1ncc2c(=O)n(C)c3ccc(OC)cc3c21)C1CCCCC1` [Compound 29] returned a half-inhibitory concentration (IC50) of 1 to 10 µM.

`CCn1c(=O)c2cnn(CC(=O)NCCN(C)C3CCCCC3)c2c2cc(OC)ccc21` [Compound 33] yielded a 50% inhibitory concentration (IC50) of less than 1 µM.

`COc1ccc2c(c1)c1c(cnn1CC(=O)NCCN1CC[C@@H]3CCCC[C@H]3C1)c(=O)n2C` [Compound 34] had an IC50 of less than 1 µM.

On to `COc1ccc2c(c1)c1c(cnn1CC(=O)NCCCN(C)C1CCCCC1)c(=O)n2C` [Compound 35], for which the concentration for half-maximal inhibition (IC50) is less than 1 µM.

Regarding `COc1nc2ccc(C)cc2c2c1cnn2CC(=O)NCCN(C)C1CCCCC1` [Compound 36], the IC50 was 1 to 10 µM.

For `CCN(CCCNC(=O)Cn1ncc2c(=O)n(C)c3ccc(OC)cc3c21)C1CCCCC1` [Compound 37], the IC50 was less than 1 µM.

Regarding `COc1ccc2c(c1)c1c(cnn1C(C)C(=O)NCCCN(C)C1CCCCC1)c(=O)n2C` (stereo not drawn) [Compound 38], the half-inhibitory concentration (IC50) fell in the range of 1 to 10 µM.

In the case of `COc1ccc2c(c1)-c1c(cnn1CC(=O)NCCN(C)C1CCCCC1)C(OCC(=O)OC(C)(C)C)N2` (stereo not drawn) [Compound 39], the half-inhibitory concentration (IC50) lay within 1 to 10 µM.

Take `COc1ccc2c(c1)c1c(cnn1CC(=O)NCCN1CCCC(C)C1)c(=O)n2C` (stereo not drawn) [Compound 40]: the IC50 lay in the range of 1 to 10 µM.
